Measurements reported in patent US20190010139A1 (priority 2015, published 2019).

Test system: NL-RLuc virus
Experiment: Inhibition of HIV replication (NL-RLuc luciferase reporter virus in MT-2 cells)
Assay type: cell-based
Settings: Human immunodeficiency virus 1, MT2, 120 h, read-out: Activity
From the text: Inhibition of HIV Replication:
A recombinant NL-RLuc proviral clone was constructed in which a section of the nef gene from NL4-3 was replaced with the Renilla Luciferase gene. This virus is fully infectious and can undergo multiple cycles of replication in cell culture. In addition, the luciferous reporter provides a simple and easy method for quantitating the extent of virus growth and consequently, the antiviral activity of test compounds. The plasmid pNLRLuc contains the proviral NL-Rluc DNA cloned into pUC 18 at the PvuII site. The NL-RLuc virus was prepared by transfection of 293T cells with the plasmid pNLRLuc. Transfections were performed using the LipofectAMINE PLUS kit from Invitrogen (Carlsbad, Calif.) according to the manufacturer and the virus generated was titered in MT-2 cells. For susceptibility analyses, the titrated virus was used to infect MT-2 cells in the presence of compound, and after 5 days of incubation, cells were processed and quantitated for virus growth by the amount of expressed luciferase. Assay media was RPMI 1640 supplemented with 10% heat inactivated fetal bovine serum (FBS), 100 units/ml penicillin G/100 units/ml streptomycin, 10 mM HEPES buffer pH 7.55 and 2 mM L-glutamine. The results from at least 2 experiments were used to calculate the EC50 values. Luciferase was quantitated using the Dual Luciferase kit from Promega (Madison, Wis.). Susceptibility of viruses to compounds was determined by incubation in the presence of serial dilutions of the compound. The 50% effective concentration (EC50) was calculated by using the exponential form of the median effect equation where (Fa)=1/[1+(ED50/drug conc.)^m](Johnson V A, Byington R T. Infectivity Assay. In Techniques in HIV Research. ed. Aldovini A, Walker B D. 71-76. New York: Stockton Press.1990). Activity equal to A refers to a compound having an EC50≤100 nM, while B and C denote compounds having an EC50 between 100 nM and 1 uM (B) or >1 uM (C).

**Q.** How did the EC50 turn out when `COc1ccc(NCc2nc(C)c([C@H](OC(C)(C)C)C(=O)O)c(N3CCC4(CCC4)CC3)c2-c2ccc(OCCc3ccc(F)cc3)cc2)cc1` [Example 47, (S)-2-(tert-Butoxy)-2-(5-(4-(4-fluorophenethoxy)phenyl)-6-(((4-methoxyphenyl)-amino)methyl)-2-methyl-4-(7-azaspiro[3.5]nonan-7-yl)pyridin-3-yl)acetic acid] was run?
**A.** < 0.1 µM

**Q.** `Cc1nc(COCC2COC2)c(-c2ccc(OCCc3ccc(F)cc3)cc2)c(N2CCC3(CCC3)CC2)c1[C@H](OC(C)(C)C)C(=O)O` [Example 48, (S)-2-(tert-Butoxy)-2-(5-(4-(4-fluorophenethoxy)phenyl)-2-methyl-6-((oxetan-3-ylmethoxy)methyl)-4-(7-azaspiro[3.5]nonan-7-yl)pyridin-3-yl)acetic acid] was tested. Which EC50 did it give?
**A.** < 0.1 µM

**Q.** How did the EC50 turn out when `CCOCCOCc1nc(C)c([C@H](OC(C)(C)C)C(=O)O)c(N2CCC3(CCC3)CC2)c1-c1ccc(OCCc2ccc(F)cc2)cc1` [Example 49, (S)-2-(tert-Butoxy)-2-(6-((2-ethoxyethoxy)methyl)-5-(4-(4-fluoro-phenethoxy)phenyl)-2-methyl-4-(7-azaspiro[3.5]nonan-7-yl)pyridin-3-yl)acetic acid] was run?
**A.** < 0.1 µM

**Q.** With `Cc1nc(CN(C)C2CCOCC2)c(-c2ccc(OCCc3ccc(F)cc3)cc2)c(N2CCC3(CCC3)CC2)c1[C@H](OC(C)(C)C)C(=O)O` [Example 50, (S)-2-(tert-Butoxy)-2-(5-(4-(4-fluorophenethoxy)phenyl)-2-methyl-6-((methyl(tetrahydro-2H-pyran-4-yl)amino)methyl)-4-(7-azaspiro[3.5]nonan-7-yl)pyridin-3-yl)acetic acid] as the compound, how does the EC50 read?
**A.** < 0.1 µM

**Q.** How did the EC50 turn out when `Cc1nc(COCC2CCOCC2)c(-c2ccc(OCCc3ccc(F)cc3)cc2)c(N2CCC3(CCC3)CC2)c1[C@H](OC(C)(C)C)C(=O)O` [Example 51, (S)-2-(tert-Butoxy)-2-(5-(4-(4-fluorophenethoxy)phenyl)-2-methyl-4-(7-azaspiro[3.5]nonan-7-yl)-6-(((tetrahydro-2H-pyran-4-yl)methoxy)methyl)pyridin-3-yl)acetic acid] was run?
**A.** < 0.1 µM

**Q.** Which EC50 does the source give for `Cc1nc(COC2CCOCC2)c(-c2ccc(OCCc3ccc(F)cc3)cc2)c(N2CCC3(CCC3)CC2)c1[C@H](OC(C)(C)C)C(=O)O` [Example 52, (S)-2-(tert-Butoxy)-2-(5-(4-(4-fluorophenethoxy)phenyl)-2-methyl-4-(7-azaspiro[3.5]nonan-7-yl)-6-(((tetrahydro-2H-pyran-4-yl)oxy)methyl)pyridin-3-yl)acetic acid] here?
**A.** < 0.1 µM

**Q.** For `Cc1nc(CN2CCCCC2)c(-c2ccc(OCCc3ccc(F)cc3)cc2)c(N2CCC3(CCC3)CC2)c1[C@H](OC(C)(C)C)C(=O)O` [Example 53, (S)-2-(tert-Butoxy)-2-(5-(4-(4-fluorophenethoxy)phenyl)-2-methyl-6-(piperidin-1-ylmethyl)-4-(7-azaspiro[3.5]nonan-7-yl)pyridin-3-yl)acetic acid], which EC50 is on record?
**A.** < 0.1 µM

**Q.** Which EC50 does the source give for `Cc1nc(CN2CCOCC2)c(-c2ccc(OCCc3ccc(F)cc3)cc2)c(N2CCC3(CCC3)CC2)c1[C@H](OC(C)(C)C)C(=O)O` [Example 54, (S)-2-(tert-Butoxy)-2-(5-(4-(4-fluorophenethoxy)phenyl)-2-methyl-6-(morpholinomethyl)-4-(7-azaspiro[3.5]nonan-7-yl)pyridin-3-yl)acetic acid] here?
**A.** < 0.1 µM

**Q.** How did the EC50 turn out when `Cc1nc(CNC2CCOCC2)c(-c2ccc(OCCc3ccc(F)cc3)cc2)c(N2CCC3(CCC3)CC2)c1[C@H](OC(C)(C)C)C(=O)O` [Example 55, (S)-2-(tert-Butoxy)-2-(5-(4-(4-fluorophenethoxy)phenyl)-2-methyl-4-(7-azaspiro[3.5]nonan-7-yl)-6-(((tetrahydro-2H-pyran-4-yl)amino)methyl)pyridin-3-yl)acetic acid] was run?
**A.** < 0.1 µM

**Q.** Which EC50 does the source give for `Cc1nc(CNCC2CCCCC2)c(-c2ccc(OCCc3ccc(F)cc3)cc2)c(N2CCC3(CCC3)CC2)c1[C@H](OC(C)(C)C)C(=O)O` [Example 56, (S)-2-(tert-Butoxy)-2-(6-(((cyclohexylmethyl)amino)methyl)-5-(4-(4-fluorophenethoxy)phenyl)-2-methyl-4-(7-azaspiro[3.5]nonan-7-yl)pyridin-3-yl)acetic acid] here?
**A.** < 0.1 µM

**Q.** Which EC50 does the source give for `Cc1nc(CN2CCC3(CCC3)CC2)c(-c2ccc(OCCc3ccc(F)cc3)cc2)c(N2CCC3(CCC3)CC2)c1[C@H](OC(C)(C)C)C(=O)O` [Example 57, (S)-2-(6-(7-Azaspiro[3.5]nonan-7-ylmethyl)-5-(4-(4-fluorophenethoxy)phenyl)-2-methyl-4-(7-azaspiro[3.5]nonan-7-yl)pyridin-3-yl)-2-(tert-butoxy)acetic acid] here?
**A.** < 0.1 µM

**Q.** How did the EC50 turn out when `Cc1nc(COC2COC2)c(-c2ccc(OCCc3ccc(F)cc3)cc2)c(N2CCC3(CCC3)CC2)c1[C@H](OC(C)(C)C)C(=O)O` [Example 58, (S)-2-(tert-Butoxy)-2-(5-(4-(4-fluorophenethoxy)phenyl)-2-methyl-6-((oxetan-3-yloxy)methyl)-4-(7-azaspiro[3.5]nonan-7-yl)pyridin-3-yl)acetic acid] was run?
**A.** < 0.1 µM

**Q.** How did the EC50 turn out when `Cc1nc(CN(C)CC2CCCCC2)c(-c2ccc(OCCc3ccc(F)cc3)cc2)c(N2CCC3(CCC3)CC2)c1[C@H](OC(C)(C)C)C(=O)O` [Example 59, (S)-2-(tert-Butoxy)-2-(6-(((cyclohexylmethyl)(methyl)amino)methyl)-5-(4-(4-fluorophenethoxy)phenyl)-2-methyl-4-(7-azaspiro[3.5]nonan-7-yl)pyridin-3-yl)acetic acid] was run?
**A.** < 0.1 µM

**Q.** `Cc1nc(C)c([C@H](OC(C)(C)C)C(=O)O)c(N2CCC3(CCCCC3)CC2)c1-c1ccc(OCCc2ccc(F)cc2)cc1` [Example 60, (S)-2-(tert-Butoxy)-2-(5-(4-(4-fluorophenethoxy)phenyl)-2,6-dimethyl-4-(3-azaspiro[5.5]undecan-3-yl)pyridin-3-yl)acetic acid] was tested. Which EC50 did it give?
**A.** < 0.1 µM

**Q.** How did the EC50 turn out when `Cc1nc(C)c([C@H](OC(C)(C)C)C(=O)O)c(N2CCC3(CCCCC3)CC2)c1-c1ccc(C(=O)NCc2ccccc2)cc1` [Example 61, (S)-2-(5-(4-(Benzylcarbamoyl)phenyl)-2,6-dimethyl-4-(3-azaspiro[5.5]undecan-3-yl)pyridin-3-yl)-2-(tert-butoxy)acetic acid] was run?
**A.** < 0.1 µM

**Q.** For `Cc1nc(C)c([C@H](OC(C)(C)C)C(=O)O)c(N2CCC3(CCCCC3)C2)c1-c1ccc(OCCc2ccc(F)cc2)cc1` [Example 62, (S)-2-(tert-Butoxy)-2-(5-(4-(4-fluorophenethoxy)phenyl)-2,6-dimethyl-4-(2-azaspiro[4.5]decan-2-yl)pyridin-3-yl)acetic acid], which EC50 is on record?
**A.** < 0.1 µM

**Q.** Which EC50 does the source give for `Cc1nc(C)c([C@H](OC(C)(C)C)C(=O)O)c(N2CCC3(CCCCC3)C2)c1-c1ccc(C(=O)NCc2ccccc2)cc1` [Example 63, (S)-2-(5-(4-(Benzylcarbamoyl)phenyl)-2,6-dimethyl-4-(2-azaspiro[4.5]decan-2-yl)pyridin-3-yl)-2-(tert-butoxy)acetic acid] here?
**A.** < 0.1 µM

**Q.** How did the EC50 turn out when `Cc1nc(C)c([C@H](OC(C)(C)C)C(=O)O)c(N2CCC3(CCCCCC3)C2)c1-c1ccc(OCCc2ccc(F)cc2)cc1` [Example 64, (S)-2-(tert-Butoxy)-2-(5-(4-(4-fluorophenethoxy)phenyl)-2,6-dimethyl-4-(2-azaspiro[4.6]undecan-2-yl)pyridin-3-yl)acetic acid] was run?
**A.** < 0.1 µM

Same assay, conditions: Human immunodeficiency virus 1, MT2, 120 h, read-out: EC50 μM

**Q.** How did the EC50 turn out when `CCOCCOCc1nc(C)c([C@H](OC(C)(C)C)C(=O)O)c(N2CCC3(CCC3)CC2)c1-c1ccc(OCCc2ccc(F)cc2)cc1` [Example 49, (S)-2-(tert-Butoxy)-2-(6-((2-ethoxyethoxy)methyl)-5-(4-(4-fluoro-phenethoxy)phenyl)-2-methyl-4-(7-azaspiro[3.5]nonan-7-yl)pyridin-3-yl)acetic acid] was run?
**A.** 0.006 µM

**Q.** For `Cc1nc(CNC2CCOCC2)c(-c2ccc(OCCc3ccc(F)cc3)cc2)c(N2CCC3(CCC3)CC2)c1[C@H](OC(C)(C)C)C(=O)O` [Example 55, (S)-2-(tert-Butoxy)-2-(5-(4-(4-fluorophenethoxy)phenyl)-2-methyl-4-(7-azaspiro[3.5]nonan-7-yl)-6-(((tetrahydro-2H-pyran-4-yl)amino)methyl)pyridin-3-yl)acetic acid], which EC50 is on record?
**A.** 0.001 µM

**Q.** How did the EC50 turn out when `Cc1nc(C)c([C@H](OC(C)(C)C)C(=O)O)c(N2CCC3(CCCCC3)C2)c1-c1ccc(OCCc2ccc(F)cc2)cc1` [Example 62, (S)-2-(tert-Butoxy)-2-(5-(4-(4-fluorophenethoxy)phenyl)-2,6-dimethyl-4-(2-azaspiro[4.5]decan-2-yl)pyridin-3-yl)acetic acid] was run?
**A.** 0.017 µM
